Data taken from article PMC2860993 (PLoS ONE, 2010).
Read-outs that look alike come from different tables or passages of the source.

How the values were obtained:
[1] = Cellular cytotoxicity, CellTiter-Glo Luminescent Cell Viability Assay; type: cell-based; conditions: human
Procedure: Human Foreskin Fibroblasts (HFF) passage 12–16 and human lung fibroblasts (HEL) passage 8–12 (from ATCC) were maintained in DMEM containing 10% fetal bovine serum and used for infections with the viruses. Cells in concentrations of 5×10^4 and 1×10^4 were seeded 24 hours prior to infection on each well of 24-and 96-well plates respectively.

Toxoplasmosis = assay: Anti-toxoplasmosis activity of compounds in supernatants of CMV infected cells; type: cell-based, Toxoplasma gondii; conditions: Human betaherpesvirus 5; supernatants of CMV infected cells at 3–5 days post infection
Description: To confirm that the difference in anti-CMV activity between monomers and dimers was not a result of instability of the monomers in tissue culture, we determined the anti-toxoplasmosis activity of these compounds in the supernatants of CMV infected cells at 3–5 days post infection.

[2] = system: recombinant luciferase-expressing CMV (Towne); assay: microbe, parasite or virus in culture; type: cell-based, human CMV; conditions: for Selectivity index (SI): ratio between CC50 and EC50
Procedure: Human Foreskin Fibroblasts (HFF) passage 12–16 and human lung fibroblasts (HEL) passage 8–12 (from ATCC) were maintained in DMEM containing 10% fetal bovine serum and used for infections with the viruses.
The CMV strains used for infections were the highly-passaged Towne virus, and a clinical isolate obtained from the urine of a neonate with congenital CMV infection (SB) and passaged once in tissue culture. […] Initial experiments were performed using a recombinant human CMV-green fluorescent protein (GFP) virus, derived from Towne strain. This virus has a 9-kb deletion from the dispensable unique short (US) region from US1 to US12, and instead contains the bacterial artificial chromosome sequences and a GFP expression cassette. […] A recombinant virus expressing luciferase reporter gene under the control of UL99 (pp28) late promoter was generated by insertion of the reporter gene between the US9 and US10 ORFs in the Towne genome.
Towne-GFP, Towne–luciferase, and SB viruses were used in these assays. HFF or HEL were grown to subconfluent monolayers and infected with the CMV viruses at MOI 0.1 to 3. […] The concentration of each compound was calculated and adjusted by volume such that it was constant throughout the experiment. Following 90 minute incubation, media was replaced with fresh media containing the drug used. Infected and treated cells were incubated at 37°C in a 5% CO2 atmosphere for 3–10 days depending on the virus and the anti-viral assay. The recombinant luciferase-expressing virus was incubated for 72 hours, the GFP virus was incubated for 5 days, and the clinical isolate for 10 days. All experiments were subsequently repeated with compounds added to wells just after viral inoculation.

[3] = system: CMV IE1 protein expression; assay: Western blot for CMV immediate early protein IE1; type: cell-based, human CMV; conditions: for IE1 expression: SB clinical isolate; for expression of IE1 and GFP: 100 µM, Towne-GFP, HFF, day 5 post infection
Procedure: Monoclonal antibodies to CMV immediate early proteins IE-1 and IE-2 (MAb810) and to cellular β-actin were purchased from Millipore (Billerica, MA). Confluent cells were infected with CMV in the presence of artemisinin compounds. At the indicated times cells were harvested in sample buffer (RIPA buffer, Tris 50 mM, Nacl 150 mM, SDS 0.1%, Na Deoxycholate 0.5%, NP40 1%, and protease inhibitor cocktail), boiled and loaded onto SDS-PAGE. Proteins were separated by electrophoresis and transferred to nitrocellulose membrane. After blocking, blots were probed with primary antibody (1∶3,000) overnight at 4°C in phosphate-buffered saline, and Tween. After washing 3 times, blots were probed with HRP-conjugated anti-mouse (Sigma), 1∶5,000 for 1 hour at room temperature. Blots were washed three times in phosphate-buffered saline/Tween, and then developed by enhanced chemiluminescence according to manufacturer protocol.
The expression of CMV immediate early (IE) protein was tested by western blot to determine whether artemisinins' inhibition of CMV replication occurs early in the virus life cycle. […] Further evidence for the early effect of artemisinins on IE1 protein expression was obtained with the clinical isolate (SB, Fig. 5b).
Western blot for IE1 and GFP performed at day 5 post infection. […] Western blot for IE1 was performed at 12 hr (MOI = 3), 24 hr and 48 hr (MOI = 1) post infection.

CMV clinical isolates = system: CMV clinical isolates; parameters: method as in PMID 11976732; conditions: 11.1 µM ref 19; cited from earlier work
[4] = system: recombinant luciferase-expressing CMV; assay: Plaque reduction assay in human embryonic lung cells; type: cell-based, human CMV; conditions: 10 µM; HEL cells; luciferase virus; 10 days
Procedure: For plaque reduction assay, human embryonic lung cells were seeded into six-well plates and incubated at 37°C one day prior to infection with the recombinant luciferase-expressing CMV. Serial dilutions of GCV, artesunate and artefanilide were used. The virus was diluted to a desired concentration which gave 50–60 plaques per well. Medium was aspirated from the wells, and 0.2 ml of virus suspension was added to each well in triplicates. Plates were incubated for 90 minutes with shaking every 10 min, thereafter drugs were added and a methylcellulose overlay applied to each well. After incubation for 10 days, cells were stained with crystal violet. The stain was aspirated, wells were washed with phosphate-buffered saline, and plaques were counted.

[5] = Human betaherpesvirus 5, read-out: EC50 (µM) - CMV
[6] = drug concentration that leads to 50% cellular cytotoxicity, mean and SD, at least five independent experiments, read-out: CC50

With CO[C@H]1O[C@@H]2O[C@@]3(C)CC[C@H]4[C@H](C)CC[C@@H]([C@H]1C)[C@@]24OO3 [Artemether (2c), artemether] the CC50 [1] was 18.4 ± 7.5 µM, the EC50 (Toxoplasmosis) was 0.58 ± 0.22 µM and the EC50 ([2]; Human betaherpesvirus 5, 72 h) was 5.3 ± 2.7 µM. For the same compound, the EC50 [2, 5] was 5.1 ± 2.1 µM and the “Selectivity index (SI)” value [2] was 3.5±2.2.

With C[C@H]1[C@@H](CCC(=O)Nc2ccc(F)cc2)O[C@@H]2O[C@@]3(C)CC[C@H]4[C@H](C)CC[C@@H]1[C@@]24OO3 [Artefanilide (3), artefanilide] the CC50 [1] was 44.9 ± 3.4 µM, the EC50 ([2]; Human betaherpesvirus 5, 72 h) was 8.1 ± 2.2 µM and the “Selectivity index (SI)” value [2] was 5.5±1.6.

Compound C[C@H]1[C@@H](CC(CO)C[C@H]2O[C@@H]3O[C@@]4(C)CC[C@H]5[C@H](C)CC[C@@H]([C@H]2C)[C@@]35OO4)O[C@@H]2O[C@@]3(C)CC[C@H]4[C@H](C)CC[C@@H]1[C@@]24OO3 (some centres unmarked) [Dimer primary alcohol (4), dimer primary alcohol] has a CC50 [1] of 57 ± 2.3 µM, an EC50 (Toxoplasmosis) of 0.4 ± 0.15 µM and an EC50 ([2]; Human betaherpesvirus 5, 72 h) of 0.15 ± 0.02 µM. For the same compound, the EC50 [2, 5] was 0.16 ± 0.04 µM, the “Selectivity index (SI)” value [2] was 380±53 and the IE1 expression ([3]; 1 µM, MOI = 1, 24 and 48 hr) was “significantly reduced”. The IE1 expression ([3]; 1 µM, MOI = 3, 12 hours post infection) was “inhibition of IE1 expression”.

C[C@@H]1CC[C@H]2[C@@H](C)C(=O)O[C@@H]3O[C@@]4(C)CC[C@@H]1[C@]32OO4 [Artemisinin (1), artemisinin] gave a CC50 [1, 6] of 72.4 ± 15.7 µM, an EC50 (Toxoplasmosis) of 4.1 ± 1.1 µM and an EC50 ([2]; Human betaherpesvirus 5, 72 h) of 16.8 ± 4 µM. The EC50 [2, 5] was 15.7 ± 4.5 µM, the “expression of IE1 and GFP” value ([3]; MOI of 0.1) was “undetectable” and the “expression of IE1 and GFP” value ([3]; MOI of 0.5) was “decreased”.

With C[C@H]1[C@@H](CC(C[C@H]2O[C@@H]3O[C@@]4(C)CC[C@H]5[C@H](C)CC[C@@H]([C@H]2C)[C@@]35OO4)CS(=O)(=O)c2ccc(COC(=O)N(C)C)cc2)O[C@@H]2O[C@@]3(C)CC[C@H]4[C@H](C)CC[C@@H]1[C@@]24OO3 (some centres unmarked) [Dimer sulfone carbamate (6), dimer sulfone dimethyl carbamate] the CC50 [1] was 28.1 ± 9.6 µM, the EC50 ([2]; Human betaherpesvirus 5, 72 h) was 0.06 µM and the “selectivity relative to GCV” value ([2]; comparison of SI, Table 1) was “approximately 10 times”. The “Selectivity index (SI)” value [2] was 508±173.

For C[C@H]1[C@H](OC(=O)CCC(=O)O)O[C@@H]2O[C@@]3(C)CC[C@H]4[C@H](C)CC[C@@H]1[C@@]24OO3 [Artesunate (2d), artesunate], the “in-vitro inhibition of clinical isolates” value (CMV clinical isolates) is given as 50–80%, the CC50 [1, 6] is given as 77.5 ± 14.4 µM and the EC50 (Toxoplasmosis) is given as 3.2 ± 0.8 µM. The EC50 ([2]; Human betaherpesvirus 5, 72 h) was 18.5 ± 5.2 µM, the EC50 [2, 5] was 17.2 ± 3.4 µM and the “Selectivity index (SI)” value [2] was 4.2±2.2.

With Nc1nc(O)c2ncn(COC(CO)CO)c2n1 [GCV, Ganciclovir] the CC50 [1, 6] was 247 ± 33.4 µM, the “reduction in plaque formation” value [4] was 80% and the EC50 ([2]; Human betaherpesvirus 5, 72 h) was 5.6 ± 0.2 µM. For the same compound, the IE1 expression ([3]; 10 µM, MOI = 1, 24 and 48 hr) was “not affected”.
